{"source": "patent US8685952B2", "about": "“Method for the treatment of diabetes” (KOWA Co., Ltd., priority 2006, dated 2014)", "key": {"KKAy mice [1]": {"tested_on": "KKAy mice", "details": "type II diabetes model, reported in the literature; cited from earlier work"}, "KKAy mice [2]": {"tested_on": "KKAy mice", "test": "oral glucose tolerance test in KKAy mice after 21 days of oral administration", "type": "in vivo", "details": "male KKAy mice; oral once a day for 21 days; pitavastatin 10 mg/kg, pravastatin 50 mg/kg, enalapril maleate 1 mg/kg; glucose 2 g/kg oral after 18 h fasting; compared with control group (combination also vs single administration groups, P<0.05)", "procedure": "Male KKAy mice (age: 10 weeks, Nippon Cler Co., Ltd.) were provided. Throughout the duration of the experiment, the mice were housed in a cage with a controlled light/dark cycle (duration of light period with a room light: 7:00 a.m. to 7:00 p.m.) at a temperature of 23±3° C. and a humidity of 55±15% and were allowed to freely take a solid chow (CE-2; Nippon Cler Co., Ltd.) and tap water. Pitavastatin and/or enalapril maleate were suspended in a 0.5-mass % aqueous solution of carboxymethyl cellulose (Iwai Kagaku Co., Ltd.) so that the pitavastatin content and the enalapril maleate content were adjusted to 1 mg/mL and 0.1 mg/mL, respectively. Since pitavastatin has a water content of 9.43%, pitavastatin was weighed in an amount of 1.1 times by mass the target dose for compensation. The suspension was refrigerated (4° C.) in a light-tight bottle. The suspensions were prepared every 7 days. Twenty four KKAy mice were randomly divided into the following four groups (six mice per group): a control group, a pitavastatin alone (10 mg/kg) group, an enalapril maleate alone (1 mg/kg) group, and a pitavastatin (10 mg/kg) and enalapril maleate (1 mg/kg) combined use group. Each of pitavastatin and enalapril maleate was orally administered once a day at a dose of 10 mL/kg for 21 days, and a 0.5 mass % aqueous sodium carboxymethyl cellulose solution (10 mL/kg) was orally administered to the control group. […] Immediately after collection, blood glucose level was determined by means of a […] reader (GR-101, product of Terumo Co., Ltd.). After determination of the initial blood glucose level, an aqueous glucose solution was orally administered to each mouse (2 g/10 mL/kg), and blood glucose level was determined in a similar manner at 15, 30, 60, and 120 minutes after administration of glucose. In each group, AUC of blood glucose level was calculated. The differences between the control group and the drug-administered groups were analyzed on the basis of Dunnett's multiple comparison test, preceded by Bartlett's analysis of variance. […]"}}, "note": "Structures can show the parent of a compound that is named as a salt."}
{"smiles": "CC[C@H](C)C(=O)O[C@H]1C[C@H](O)C=C2C=C[C@H](C)[C@H](CC[C@@H](O)C[C@@H](O)CC(=O)O)[C@H]21", "note": "[pravastatin, pravastatin sodium]", "values": [{"measurement": "effect on impaired glucose tolerance / insulin resistance", "setting": "KKAy mice [1]", "result": "effect of reversing impaired glucose tolerance"}, {"measurement": "AUC of blood glucose level (to glucose tolerance hour 2)", "setting": "KKAy mice [2]", "result": "tended to be reduced"}]}
{"smiles": "CCOC(=O)[C@H](CCc1ccccc1)N[C@H]1CS[C@H](c2cccs2)CN(CC(=O)O)C1=O", "note": "[temocapril]", "values": [{"measurement": "effect on impaired glucose tolerance / insulin resistance", "setting": "KKAy mice [1]", "result": "reduction of insulin resistance"}]}
{"smiles": "CCOC(=O)[C@H](CCc1ccccc1)N[C@@H](C)C(=O)N1CCC[C@H]1C(=O)O", "note": "[enalapril maleate]", "values": [{"measurement": "AUC of blood glucose level (to glucose tolerance hour 2)", "setting": "KKAy mice [2]", "result": "tended to be reduced"}]}
{"smiles": "O=C([O-])C[C@H](O)C[C@H](O)/C=C/c1c(C2CC2)nc2ccccc2c1-c1ccc(F)cc1.O=C([O-])C[C@H](O)C[C@H](O)/C=C/c1c(C2CC2)nc2ccccc2c1-c1ccc(F)cc1.[Ca+2]", "note": "[pitavastatin, pitavastatin calcium]", "values": [{"measurement": "effect on impaired glucose tolerance / insulin resistance", "setting": "KKAy mice [1]", "result": "effect of improving impaired glucose tolerance"}, {"measurement": "AUC of blood glucose level (to glucose tolerance hour 2)", "setting": "KKAy mice [2]", "result": "tended to be reduced"}]}
